System: Ph9F-1x
Experiment: Adipogenesis of fish adipose-derived cell line (AdipoRed / Hoechst 33342 staining)
Type: cell-based, Pangasianodon hypophthalmus
Conditions: for adipogenesis induction efficiency: addition to adipogenesis induction composition (FIGS. 22 and 25)
Protocol: Adipogenesis of adipose-derived cells were induced. The cells were resuspended at cell density of 100,000 cells/ml of complete growth medium and seeded at 100 μl/well into gelatin-coated 96-well flat-bottom black plates. The cells were incubated at 28° C. in a humidified atmosphere containing 5% CO2. […] After 3 and 6 days of adipogenic induction, the cells were induced with DMEM, 15% FBS, 0.1% fish serum, 300 U/ml of penicillin, 300 μg/mL of streptomycin, and adipogenic induction cocktail 2, containing 167 nM of insulin. Linoleic acid-oleic acid albumin (LAOA, Sigma-Aldrich), docosahexaenoic acid (DHA, Cayman Chemical), eicosapentaenoic acid (EPA, Cayman Chemical), oleic acid albumin (OAA, Sigma Aldrich), and linoleic acid albumin (LAA, Sigma Aldrich) can also be added to the adipogenic induction cocktail, if required. […] The cells were imaged using N-STORM/TIRF microscope and analysed using NIS-Element software.

[1] = 100 μM vitamin, Essential 6, fish serum, LAOA, IBMX, dexamethasone, after 6 days

Compound	percentage of matured adipocytes [1]	total lipid content [1]	further results
CC(C)(CO)[C@H](O)C(=O)NCCC(=O)O [D-pantothenic acid]	did not significantly enhance	did not significantly enhance	–
CC/C=C\C/C=C\C/C=C\C/C=C\C/C=C\C/C=C\CCC(=O)O [DHA, docosahexaenoic acid]	–	–	nuclei count after adipogenesis (100 μM, final 3 days of adipogenesis): significantly reduced
O=C(O)CCCC[C@@H]1SC[C@@H]2NC(=O)N[C@@H]21 [biotin]	did not significantly enhance	did not significantly enhance	–
O=C1O[C@H]([C@@H](O)CO)C(O)=C1O [vitamin C]	–	–	adipogenesis induction efficiency: no adverse effects
C=C1CC[C@H](O)C/C1=C/C=C1\CCC[C@]2(C)[C@@H]([C@H](C)CCCC(C)C)CC[C@@H]12 [vitamin D3]	did not significantly enhance	did not significantly enhance	total lipid content of matured adipocyte (intensity) (100 μM, 6 days, AdipoRed fluorescence intensity, borderline statistical significance): 3.5×10^9; adipogenesis induction efficiency: no adverse effects
CC(=O)Oc1c(C)c(C)c2c(c1C)CCC(C)(CCC[C@H](C)CCC[C@H](C)CCCC(C)C)O2 (stereo partly drawn) [α-tocopherol acetate]	did not significantly enhance	did not significantly enhance	–
oleic acid albumin [OAA]	–	–	percentage of matured adipocytes (100 μM, 6 days, as compared to LAA): significantly enhanced

Source: patent publication US20240309326A1, “Method of Isolating Adipose-Derived Cell Lines and Uses Thereof” (AGENCY FOR SCIENCE, TECHNOLOGY AND RESEARCH, priority 2021, published 2024)
